Converted amounts (≈) assume the structure as drawn. The source made the active and inactive calls. The rule behind the calls is not given here.
Columns and labels:
[1] = test system: Mycobacterium tuberculosis; test: Antitubercular activity against Mycobacterium tuberculosis H37Rv by Agar dilution method; assay type: functional
[2] = test system: Mycobacterium tuberculosis; test: Antitubercular activity against Mycobacterium tuberculosis H37Rv at 12.5 ug/mL by MABA assay; assay type: functional, organism-based
[3] = test system: Mycobacterium tuberculosis; test: Antitubercular activity against Mycobacterium tuberculosis H37Rv by MABA assay; assay type: functional
Vero = test: Cytotoxicity against Vero cells after 3 days; assay type: cell-based; details: chlorocebus sabaeus, 72 h

Compound | MIC [1] [µg/mL] | Activity [2] | MIC [3] [µg/mL] | Activity (Vero)
CCN(CC)CCOc1ccc(C(c2ccccc2)c2ccc(F)cc2)c2ccccc12 (stereo unspecified) | > 12.5 | inactive | – | –
c1ccc(C(c2ccccc2)c2ccc(OCCN3CCCC3)c3ccccc23)cc1 | 12.5 (≈ 30.7 µM) | – | 6.25 (≈ 15.3 µM) | –
CCN(CC)CCOc1ccc(C(c2ccccc2)c2ccccc2)c2ccccc12 | 12.5 (≈ 30.5 µM) | – | 6.25 (≈ 15.3 µM) | –
CCN(CC)CCOc1ccc2ccccc2c1C(c1ccccc1)c1ccccc1 | 3.12 (≈ 7.62 µM) | – | 6.25 (≈ 15.3 µM) | Toxic
c1ccc(C(c2ccccc2)c2ccc(OCCN3CCCCC3)c3ccccc23)cc1 | > 12.5 | – | 12.5 (≈ 29.7 µM) | –
c1ccc(C(c2ccccc2)c2c(OCCN3CCCCC3)ccc3ccccc23)cc1 | 3.12 (≈ 7.4 µM) | – | 6.25 (≈ 14.8 µM) | Toxic
CCN(CC)CCOc1ccc(C(c2ccccc2)c2ccc(Cl)cc2)c2ccccc12 (stereo unspecified) | 12.5 (≈ 28.2 µM) | – | 12.5 (≈ 28.2 µM) | –
c1ccc(C(c2ccccc2)c2ccc(OCCN3CCCCCC3)c3ccccc23)cc1 | 12.5 (≈ 28.7 µM) | – | 12.5 (≈ 28.7 µM) | –
Fc1ccc(C(c2ccccc2)c2c(OCCN3CCCCCC3)ccc3ccccc23)cc1 (stereo unspecified) | 12.5 (≈ 27.6 µM) | – | 6.25 (≈ 13.8 µM) | –
CN(C)CCOc1ccc(C(c2ccccc2)c2ccc(Cl)cc2)c2ccccc12 (stereo unspecified) | > 12.5 | inactive | – | –
Fc1ccc(C(c2ccccc2)c2ccc(OCCN3CCCCCC3)c3ccccc23)cc1 (stereo unspecified) | > 12.5 | – | 12.5 (≈ 27.6 µM) | –
CN(C)CCOc1ccc(C(c2ccccc2)c2ccccc2)c2ccccc12 | 6.25 (≈ 16.4 µM) | – | 12.5 (≈ 32.8 µM) | –
Fc1ccc(C(c2ccccc2)c2ccc(OCCN3CCCCC3)c3ccccc23)cc1 (stereo unspecified) | 12.5 (≈ 28.4 µM) | – | 12.5 (≈ 28.4 µM) | –
CCN(CC)CCOc1ccc2ccccc2c1C(c1ccccc1)c1ccc(Cl)cc1 (stereo unspecified) | 6.25 (≈ 14.1 µM) | – | 3.12 (≈ 7.03 µM) | –
Fc1ccc(C(c2ccccc2)c2c(OCCN3CCCCC3)ccc3ccccc23)cc1 (stereo unspecified) | 3.12 (≈ 7.1 µM) | – | 6.25 (≈ 14.2 µM) | Toxic
Fc1ccc(C(c2ccccc2)c2ccc(OCCN3CCCC3)c3ccccc23)cc1 (stereo unspecified) | 12.5 (≈ 29.4 µM) | – | 6.25 (≈ 14.7 µM) | –

Compound | MIC [1] [µg/mL] | Activity [2] | MIC [3] [µg/mL] | Activity (Vero)
CN(C)CCOc1ccc(C(c2ccccc2)c2ccc(F)cc2)c2ccccc12 (stereo unspecified) | > 12.5 | inactive | – | –
CCN(CC)CCOc1ccc2ccccc2c1C(c1ccccc1)c1ccc(F)cc1 (stereo unspecified) | 3.12 (≈ 7.3 µM) | – | 6.25 (≈ 14.6 µM) | Toxic
CN(C)CCOc1ccc2ccccc2c1C(c1ccccc1)c1ccc(F)cc1 (stereo unspecified) | 6.25 (≈ 15.6 µM) | – | 3.12 (≈ 7.81 µM) | –
NNC(=O)c1ccncc1 [ISONIAZID] | 0.025 (≈ 0.182 µM) | – | 0.025 (≈ 0.182 µM) | –
c1ccc(C(c2ccccc2)c2c(OCCN3CCCCCC3)ccc3ccccc23)cc1 | 3.12 (≈ 7.16 µM) | – | 6.25 (≈ 14.3 µM) | Toxic
Clc1ccc(C(c2ccccc2)c2c(OCCN3CCCCCC3)ccc3ccccc23)cc1 (stereo unspecified) | 6.25 (≈ 13.3 µM) | – | 3.12 (≈ 6.64 µM) | –
Clc1ccc(C(c2ccccc2)c2c(OCCN3CCCC3)ccc3ccccc23)cc1 (stereo unspecified) | 6.25 (≈ 14.1 µM) | – | 3.12 (≈ 7.06 µM) | –
Clc1ccc(C(c2ccccc2)c2ccc(OCCN3CCCCCC3)c3ccccc23)cc1 (stereo unspecified) | > 12.5 | inactive | – | –
Clc1ccc(C(c2ccccc2)c2c(OCCN3CCCCC3)ccc3ccccc23)cc1 (stereo unspecified) | 6.25 (≈ 13.7 µM) | – | 3.12 (≈ 6.84 µM) | –
CN(C)CCOc1ccc2ccccc2c1C(c1ccccc1)c1ccc(Cl)cc1 (stereo unspecified) | 6.25 (≈ 15 µM) | – | 3.12 (≈ 7.5 µM) | –
Clc1ccc(C(c2ccccc2)c2ccc(OCCN3CCCCC3)c3ccccc23)cc1 (stereo unspecified) | 12.5 (≈ 27.4 µM) | inactive | – | –
CN(C)CCOc1ccc2ccccc2c1C(c1ccccc1)c1ccccc1 | 3.12 (≈ 8.18 µM) | – | 6.25 (≈ 16.4 µM) | Toxic
CO[C@H]1/C=C/O[C@@]2(C)Oc3c(C)c(O)c4c(O)c(c(/C=N/N5CCN(C)CC5)c(O)c4c3C2=O)NC(=O)/C(C)=C\C=C\[C@H](C)[C@H](O)[C@@H](C)[C@@H](O)[C@@H](C)[C@H](OC(C)=O)[C@@H]1C [RIFAMPIN] | 0.2 (≈ 0.243 µM) | – | 0.2 (≈ 0.243 µM) | –
c1ccc(C(c2ccccc2)c2c(OCCN3CCCC3)ccc3ccccc23)cc1 | 3.12 (≈ 7.66 µM) | – | 6.25 (≈ 15.3 µM) | Toxic
Clc1ccc(C(c2ccccc2)c2ccc(OCCN3CCCC3)c3ccccc23)cc1 (stereo unspecified) | 12.5 (≈ 28.3 µM) | inactive | – | –
Fc1ccc(C(c2ccccc2)c2c(OCCN3CCCC3)ccc3ccccc23)cc1 (stereo unspecified) | 6.25 (≈ 14.7 µM) | – | 3.12 (≈ 7.33 µM) | –
